How the values were obtained:
morphine antinociception = experiment: Warm-water tail flick assay, antagonism of morphine antinociception; format: in vivo; conditions: antagonizing morphine (10 mg/kg) antinociception; s.c.; six mice
morphine dependent mice = experiment: Opioid withdrawal assay in morphine-pelleted mice; format: in vivo; conditions: morphine-pelleted mice; s.c.

## C=CCN1CC[C@]23c4c5ccc(O)c4O[C@H]2C(=O)CC[C@@]3(O)[C@H]1C5 [Naloxone, naloxone, reference compound]
Morphine antinociception
  AD50 values (mg/kg (95% CL)): 0.05 (0.03-0.09) mg/kg
Morphine dependent mice
  Precipitated withdrawal symptoms, overall comparison: even more significant syndrome

— article PMC4373589 (Journal of medicinal chemistry, 2013)
